Measurements reported in ChEMBL document CHEMBL6109146, “Discovery of New Pyrazolone Carbothioamide Derivatives as Potent Antifungal Agents for the Treatment of Candidiasis and Cryptococcosis” (J Med Chem, 2025).
Calls of active or inactive are those of the source. No cut-off for these calls is given here.

What was measured:
Cryptococcus neoformans [1] = assay: Induction of morphological changes in Cryptococcus neoformans H99 assessed as cell wall damage at 4 microg/ml incubated for 8 hrs by transmission electron microscopic analysis; type: functional, organism-based; conditions: dose 4.0 µg/ml
Cryptococcus neoformans [2] = assay: (§1) Antifungal activity against Cryptococcus neoformans H99 infected in cryptococcosis female ICR mouse model assessed as reduction in pyknosis in neuronal nuclei by measuring reduction in staining at 20 mg/kg, ip pre-infected with fungi for 3 hrs followed by compound administration and measured after 5 days by H and E staining based analysis; type: functional, organism-based; conditions: time 5.0 day
Cryptococcus neoformans [3] = assay: Inhibition of melanin production in Cryptococcus neoformans H99 at 0.031 to 1 microg/ml by photographic analysis relative to control; type: functional, organism-based; conditions: dose 0.031-1 µg/ml
Cryptococcus neoformans [4] = assay: Induction of morphological changes in Cryptococcus neoformans H99 assessed as organelle damage at 4 microg/ml incubated for 8 hrs by transmission electron microscopic analysis; type: functional, organism-based; conditions: dose 4.0 µg/ml
Cryptococcus neoformans [5] = assay: Induction of oxidative damage in Cryptococcus neoformans H99 assessed as increase in MDA level at 4 microg/ml incubated for 24 hrs relative to control; type: functional; conditions: dose 4.0 µg/ml
Cryptococcus neoformans [6] = assay: Induction of morphological changes in Cryptococcus neoformans H99 assessed as nuclei damage at 4 microg/ml incubated for 8 hrs by transmission electron microscopic analysis; type: functional, organism-based; conditions: dose 4.0 µg/ml
Cryptococcus neoformans [7] = assay: Inhibition of urease production in Cryptococcus neoformans H99 at 0.031 to 1 microg/ml by photographic analysis relative to control; type: functional; conditions: dose 0.031-1 µg/ml
Nakaseomyces glabratus [8] = assay: Fungicidal activity against Candida glabrata 0161 at 32 microg/ml incubated for 48 hrs by time-kill kinetics analysis; type: functional, organism-based; conditions: dose 32.0 µg/ml
Nakaseomyces glabratus [9] = assay: Inhibition of matured biofilm in Candida glabrata 0161 at 2 to 32 microg/ml incubated for 24 hrs by XTT reagent based assay; type: functional, organism-based; conditions: dose 2-32 µg/ml
Cryptococcus neoformans [10] = assay: Inhibition of capsule formation in Cryptococcus neoformans H99 at 32 microg/ml incubated for 24 hrs by light microscopic analysis; type: functional, organism-based; conditions: dose 32.0 µg/ml
Cryptococcus neoformans [11] = assay: as §1, with “cysts formation” for “pyknosis”, “brain cortex” for “neuronal nuclei by measuring reduction in staining”; type: functional, organism-based; conditions: time 5.0 day
Cryptococcus neoformans [12] = assay: Effect on intracellular free iron ions level in Cryptococcus neoformans H99 at 4 microg/ml incubated for 24 hrs by absorbance based analysis; type: functional, cell-based; conditions: dose 4.0 µg/ml
Cryptococcus neoformans [13] = assay: Induction of ROS accumulation in Cryptococcus neoformans H99 assessed as increase in intracellular ROS level by measuring intense green fluorescence at 4 microg/ml incubated for 24 hrs by DCFH-DA probe based fluorescence microscopic analysis; type: functional, organism-based; conditions: dose 4.0 µg/ml
Cryptococcus neoformans [14] = assay: Antifungal activity against Cryptococcus neoformans H99 assessed as inhibition of fungal growth in presence of Fe(III) ions; type: functional
Cryptococcus neoformans [15] = assay: Antifungal activity against Cryptococcus neoformans H99 assessed as inhibition of fungal growth in presence of Fe(II) ions; type: functional
Cryptococcus neoformans [16] = assay: Inhibition of biofilm formation in Cryptococcus neoformans H99 at 32 microg/ml incubated for 24 hrs by XTT reagent based assay relative to control; type: functional
Cryptococcus neoformans [17] = assay: Inhibition of matured biofilm in Cryptococcus neoformans H99 at 2 to 32 microg/ml incubated for 24 hrs by XTT reagent based assay; type: functional, organism-based; conditions: dose 2-32 µg/ml
Cryptococcus neoformans [18] = assay: Antifungal activity against Cryptococcus neoformans H99 assessed as inhibition of fungal growth in presence of 10% serum containing transferrin-bound ferric iron and free iron; type: functional
Cryptococcus neoformans [19] = assay: Antifungal activity against Cryptococcus neoformans 011409 assessed as inhibition of fungal growth incubated for 48 to 72 hrs by microplate reader analysis; type: functional; conditions: time 48-72 hrs
Cryptococcus neoformans [20] = assay: Antifungal activity against Cryptococcus neoformans H99 assessed as inhibition of fungal growth incubated for 48 to 72 hrs by microplate reader analysis; type: functional; conditions: time 48-72 hrs
[Candida] auris [21] = Antifungal activity against Candida auris 0029 assessed as inhibition of fungal growth incubated for 48 to 72 hrs by microplate reader analysis; type: functional, organism-based; conditions: Candidozyma auris, time 48-72 hrs
Candida albicans [22] = assay: Antifungal activity against Candida albicans 9296 assessed as inhibition of fungal growth incubated for 48 to 72 hrs by microplate reader analysis; type: functional, organism-based; conditions: time 48-72 hrs
Nakaseomyces glabratus [23] = assay: Antifungal activity against Candida glabrata 9256 assessed as inhibition of fungal growth incubated for 48 to 72 hrs by microplate reader analysis; type: functional; conditions: time 48-72 hrs
Cryptococcus gattii = assay: Antifungal activity against Cryptococcus gattii 01063P assessed as inhibition of fungal growth incubated for 48 to 72 hrs by microplate reader analysis; type: functional; conditions: time 48-72 hrs
[Candida] auris [24] = Antifungal activity against Candida auris 0030 assessed as inhibition of fungal growth incubated for 48 to 72 hrs by microplate reader analysis; type: functional, organism-based; conditions: Candidozyma auris, time 48-72 hrs
[Candida] auris [25] = Antifungal activity against Candida auris 15448 assessed as inhibition of fungal growth incubated for 48 to 72 hrs by microplate reader analysis; type: functional, organism-based; conditions: Candidozyma auris, time 48-72 hrs
Cryptococcus neoformans [26] = assay: Antifungal activity against Cryptococcus neoformans HN-68 assessed as inhibition of fungal growth incubated for 48 to 72 hrs by microplate reader analysis; type: functional; conditions: time 48-72 hrs
Candida albicans [27] = assay: Antifungal activity against Candida albicans 103 assessed as inhibition of fungal growth incubated for 48 to 72 hrs by microplate reader analysis; type: functional, organism-based; conditions: time 48-72 hrs
Nakaseomyces glabratus [28] = assay: Antifungal activity against Candida glabrata 0161 assessed as inhibition of fungal growth incubated for 48 to 72 hrs by microplate reader analysis; type: functional; conditions: time 48-72 hrs
Candida albicans [29] = assay: Antifungal activity against Candida albicans SC5314 assessed as inhibition of fungal growth incubated for 48 to 72 hrs by microplate reader analysis; type: functional, organism-based; conditions: time 48-72 hrs
Nakaseomyces glabratus [30] = assay: Antifungal activity against Candida glabrata 8535 assessed as inhibition of fungal growth incubated for 48 to 72 hrs by microplate reader analysis; type: functional; conditions: time 48-72 hrs

SMILES | Activity (Cryptococcus neoformans [19]) | Activity (Cryptococcus neoformans [20]) | Activity ([Candida] auris [21]) | Activity (Candida albicans [22]) | Activity (Nakaseomyces glabratus [23]) | Activity (Cryptococcus gattii) | Activity ([Candida] auris [24]) | Activity ([Candida] auris [25]) | Activity (Cryptococcus neoformans [26]) | Activity (Candida albicans [27]) | Activity (Nakaseomyces glabratus [28]) | Activity (Candida albicans [29]) | Activity (Nakaseomyces glabratus [30]) | further results
OC(Cn1cncn1)(Cn1cncn1)c1ccc(F)cc1F [FLUCONAZOLE] | – | – | – | – | – | – | – | – | – | – | – | – | – | Activity (Cryptococcus neoformans [1]): inactive; Activity (Cryptococcus neoformans [2]): inactive; inhibition (Cryptococcus neoformans [3]): inactive; Activity (Cryptococcus neoformans [4]): inactive; Activity (Cryptococcus neoformans [5]): inactive; Activity (Cryptococcus neoformans [6]): inactive; inhibition (Cryptococcus neoformans [7]): inactive; Activity (Nakaseomyces glabratus [8]): inactive; inhibition (Nakaseomyces glabratus [9]): Moderate_effect; inhibition (Cryptococcus neoformans [10]): inactive; Activity (Cryptococcus neoformans [11]): inactive; Activity (Cryptococcus neoformans [12]): inactive; Activity (Cryptococcus neoformans [13]): inactive; MIC (Cryptococcus neoformans [14]): 2 µg/mL; MIC (Cryptococcus neoformans [15]): 2 µg/mL; inhibition at 32 µg/mL (Cryptococcus neoformans [16]): 17%; inhibition (Cryptococcus neoformans [17]): inactive; MIC (Cryptococcus neoformans [18]): 2 µg/mL
Nc1cc(=O)n(C(=S)Nc2ccc(OC3CCCC3)cc2)[nH]1 | Active | Active | Active | Active | Active | Active | Active | Active | Active | Active | Active | Active | Active | –
CCCCCCc1ccc(NC(=S)n2[nH]c(N)cc2=O)cc1 | Active | Active | Active | Active | Active | Active | Active | Active | Active | Active | Active | Active | Active | –
CCc1ccc(NC(=O)n2[nH]c(N)cc2=O)cc1 | inactive | inactive | inactive | inactive | inactive | inactive | inactive | inactive | inactive | inactive | inactive | inactive | inactive | –
CS(=O)(=O)c1ccc(NC(=S)n2[nH]c(N)cc2=O)cc1 | Not active; Compound Demonstrated Reduced Activity Compared To Lead Compound 1 | Not active; Compound Demonstrated Reduced Activity Compared To Lead Compound 1 | Not active; Compound Demonstrated Reduced Activity Compared To Lead Compound 1 | Not active; Compound Demonstrated Reduced Activity Compared To Lead Compound 1 | Active | Not active; Compound Demonstrated Reduced Activity Compared To Lead Compound 1 | Not active; Compound Demonstrated Reduced Activity Compared To Lead Compound 1 | Not active; Compound Demonstrated Reduced Activity Compared To Lead Compound 1 | Not active; Compound Demonstrated Reduced Activity Compared To Lead Compound 1 | Not active; Compound Demonstrated Reduced Activity Compared To Lead Compound 1 | Active | Not active; Compound Demonstrated Reduced Activity Compared To Lead Compound 1 | Active | –
S=C(Nc1ccc(C2CCCCC2)cc1)Nc1cc[nH]n1 | inactive | inactive | inactive | inactive | inactive | inactive | inactive | inactive | inactive | inactive | inactive | inactive | inactive | –
